# According to patent EP4806900A2, “RAS INHIBITORS” (Revolution Medicines, Inc., priority 2019, dated 2021):
# pIC50: −log10 of the molar value. Values joined by “and” are separate entries in the source; they are usually repeats but may differ in a detail not shown here. Equal entries are not always repeated.
# System: NCI-H358 (K-Ras G12C)
# Test: CellTiter-Glo cell viability assay, NCI-H358
# Format: cell-based, human
# Settings: Table 5; read-out: H358 Cell Viability assay data (K-Ras G12C, IC50)
# Procedure, shortened: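 Compounds dispensed directly onto plated NCI-H358 cells; plates equilibrated to room temperature on day 5 before luminescence read-out. Signal normalized to mean DMSO control (%) and fitted by four-parameter logistic.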
row,pIC50,Compound
1,6.00 to 7.00,"CCn1c(-c2cccnc2COC)c2c3cc(ccc31)-c1cc(O)cc(c1)C[C@H](NC(=O)[C@H](C(C)C)N(C)C(=O)C1CN(C(=O)/C=C/CN(C)C)C1)C(=O)N1CCC[C@H](N1)C(=O)OCC(C)(C)C2 [Compound A71, (2S)-2-(1-{1-[(2E)-4-(dimethylamino)but-2-enoyl]azetidin-3-yl}-N-methylformamido)-N-[(8S,14S)-22-ethyl-4-hydroxy-21-[2-(methoxymethyl)pyridin-3-yl]-18,18-dimethyl-9,15-dioxo-16-oxa-10,22,28-triazapentacyclo[18.5.2.1^2,6.1^10,^14.0^23,^27]nonacosa-1(26),2,4,6(29),20,23(27),24-heptaen-8-yl]-3-methylbutanamide]"
2,< 6.00,CCn1c(-c2cccnc2COC)c2c3cc(ccc31)-c1cc(O)cc(c1)C[C@H](NC(=O)[C@H](C(C)C)N(C)C(=O)[C@H]1CCN(C(=O)/C=C/CN3CCN(C)CC3)C1)C(=O)N1CCC[C@H](N1)C(=O)OCC(C)(C)C2 [Compound A72]
3,7.00 to 8.00,C=CC(=O)N1CC[C@H](C(=O)N(C)[C@H](C(=O)N[C@H]2Cc3cc(O)cc(c3)-c3ccc4c(c3)c(c(-c3cncc(CN(C)C)c3)n4CC)CC(C)(C)COC(=O)[C@@H]3CCCN(N3)C2=O)C(C)C)C1 [Compound A73]
4,7.00 to 8.00,C=CC(=O)N1CC[C@H](C(=O)N(C)[C@H](C(=O)N[C@H]2Cc3cc(O)cc(c3)-c3ccc4c(c3)c(c(-c3cccnc3)n4C(C)(C)C#N)CC(C)(C)COC(=O)[C@@H]3CCCN(N3)C2=O)C(C)C)C1 [Compound A74]
5,> 8.00 and 7.00 to 8.00,"C=CC(=O)N1CC[C@H](C(=O)N(C)[C@H](C(=O)N[C@H]2Cc3cc(O)cc(c3)-c3ccc4c(c3)c(c(-c3cccnc3[C@H](C)OC)n4CC)CC(C)(C)COC(=O)[C@@H]3CCCN(N3)C2=O)C(C)C)C1 [Compound A75, (2S)-N-[(8S,14S,20M)-22-ethyl-4-hydroxy-21-{2-[(1S)-1-methoxyethyl]pyridin-3-yl}-18,18-dimethyl-9,15-dioxo-16-oxa-10,22,28-triazapentacyclo[18.5.2.1^2,^6.1^10,^14.0^23,^27]nonacosa-1(26),2,4,6(29),20,23(27),24-heptaen-8-yl]-3-methyl-2-{N-methyl-1-[(3S)-1-(prop-2-enoyl)pyrrolidin-3-yl]formamido}butanamide]"
6,7.00 to 8.00,C=CC(=O)N1CC[C@H](C(=O)N(C)[C@H](C(=O)N[C@H]2Cc3cc(O)cc(c3)-c3ccc4c(c3)c(c(-c3cnccc3C)n4CC)CC(C)(C)COC(=O)[C@@H]3CCCN(N3)C2=O)C(C)C)C1 [Compound A77]
7,7.00 to 8.00,CCn1c(-c2ccccc2COC)c2c3cc(ccc31)-c1cc(O)cc(c1)C[C@H](NC(=O)[C@H](C(C)C)N(C)C(=O)[C@H]1CCN(C(=O)/C=C/CN(C)C)C1)C(=O)N1CCC[C@H](N1)C(=O)OCC(C)(C)C2 [Compound A79]
8,6.00 to 7.00,C=CC(=O)N1CC[C@H](C(=O)N(C)[C@H](C(=O)N[C@H]2Cc3cc(O)cc(c3)-c3ccc4c(c3)c(c(-c3c(CCOC)cccc3OC)n4CC)CC(C)(C)COC(=O)[C@@H]3CCCN(N3)C2=O)C(C)C)C1 [Compound A80]
9,7.00 to 8.00,C=CC(=O)N1CC[C@H](C(=O)N(C)[C@H](C(=O)N[C@H]2Cc3cc(O)cc(c3)-c3ccc4c(c3)c(c(-c3cc(F)cnc3COC)n4CC)CC(C)(C)COC(=O)[C@@H]3CCCN(N3)C2=O)C(C)C)C1 [Compound A82]
10,7.00 to 8.00,C=CC(=O)N1CC[C@H](C(=O)N(C)[C@H](C(=O)N[C@H]2Cc3cc(O)cc(c3)-c3ccc4c(c3)c(c(-c3cncc(COC)c3)n4CC)CC(C)(C)COC(=O)[C@@H]3CCCN(N3)C2=O)C(C)C)C1 [Compound A83]
11,6.00 to 7.00,C=CC(=O)N1CC[C@H](C(=O)N(C)[C@H](C(=O)N[C@H]2Cc3cc(O)cc(c3)-c3ccc4c(c3)c(c(-c3ncccc3COC)n4CC)CC(C)(C)COC(=O)[C@@H]3CCCN(N3)C2=O)C(C)C)C1 [Compound A84]
12,6.00 to 7.00,C=CC(=O)N1CC[C@H](C(=O)N(C)[C@H](C(=O)N[C@H]2Cc3cc(O)cc(c3)-c3ccc4c(c3)c(c(-c3nccnc3COC)n4CC)CC(C)(C)COC(=O)[C@@H]3CCCN(N3)C2=O)C(C)C)C1 [Compound A85]
13,7.00 to 8.00,C=CC(=O)N1CC[C@H](C(=O)N(C)[C@H](C(=O)N[C@H]2Cc3cc(O)cc(c3)-c3ccc4c(c3)c(c(-c3ccncc3)n4C(C)(C)C#N)CC(C)(C)COC(=O)[C@@H]3CCCN(N3)C2=O)C(C)C)C1 [Compound A86]
14,7.00 to 8.00,CCn1c(-c2cnccc2COC)c2c3cc(ccc31)-c1cc(O)cc(c1)C[C@H](NC(=O)[C@H](C(C)C)N(C)C(=O)[C@H]1CCN(C(=O)/C=C/CN(C)C)C1)C(=O)N1CCC[C@H](N1)C(=O)OCC(C)(C)C2 [Compound A87]
15,> 8.00,CCn1c(-c2cnccc2COC)c2c3cc(ccc31)-c1cc(O)cc(c1)C[C@H](NC(=O)[C@H](C(C)C)N(C)C(=O)[C@H]1CCN(C(=O)C#CCN(C)C)C1)C(=O)N1CCC[C@H](N1)C(=O)OCC(C)(C)C2 [Compound A88]
16,7.00 to 8.00,"C=CC(=O)N1CC[C@H](C(=O)N(C)[C@H](C(=O)N[C@H]2Cc3cc(O)cc(c3)-c3ccc4c(c3)c(c(-c3ccc(N5CCN(C)CC5)nc3)n4CC)CC(C)(C)COC(=O)[C@@H]3CCCN(N3)C2=O)C(C)C)C1 [Compound A89, (2S)-N-[(8S,14S)-22-ethyl-4-hydroxy-18,18-dimethyl-21-[6-(4-methylpiperazin-1-yl)pyridin-3-yl]-9,15-dioxo-16-oxa-10,22,28-triazapentacyclo[18.5.2.1^2,^6.1^10,^14.0^23,^27]nonacosa-1(26),2,4,6(29),20,23(27),24-heptaen-8-yl]-3-methyl-2-{N-methyl-1-[(3S)-1-(prop-2-enoyl)pyrrolidin-3-yl]formamido}butanamide]"
17,< 6.00,CCn1c(-c2ccccc2CN(C)C)c2c3cc(ccc31)-c1cc(O)cc(c1)C[C@H](NC(=O)[C@H](C(C)C)N(C)C(=O)c1nc(NC(=O)/C=C/CN(C)C)cs1)C(=O)N1CCC[C@H](N1)C(=O)OCC(C)(C)C2 [Compound A90]
18,> 8.00,C=CC(=O)N1CC[C@H](C(=O)N(C)[C@H](C(=O)N[C@H]2Cc3cc(O)cc(c3)-c3ccc4c(c3)c(c(-c3cnccc3COC)n4CC)CC(C)(C)COC(=O)[C@@H]3CCCN(N3)C2=O)C(C)C)C1 [Compound A91]
19,6.00 to 7.00,C=CC(=O)N1CC[C@H](C(=O)N(C)[C@H](C(=O)N[C@H]2Cc3cc(O)cc(c3)-c3ccc4c(c3)c(c(-c3cccnc3CN(C)C)n4CC)CC(C)(C)COC(=O)[C@@H]3CCCN(N3)C2=O)C(C)C)C1 [Compound A92]
20,7.00 to 8.00,C=CC(=O)N1CC[C@H](C(=O)N(C)[C@H](C(=O)N[C@H]2Cc3cc(O)cc(c3)-c3ccc4c(c3)c(c(-c3cccnc3COC)n4CC#N)CC(C)(C)COC(=O)[C@@H]3CCCN(N3)C2=O)C(C)C)C1 [Compound A93]
21,7.00 to 8.00,C=CC(=O)N1CC[C@H](C(=O)N(C)[C@H](C(=O)N[C@H]2Cc3nc(cs3)-c3ccc4c(c3)c(c(-c3cccnc3COC)n4CC)CC(C)(C)COC(=O)[C@@H]3CCCN(N3)C2=O)C(C)C)C1 [Compound A94]

row,Compound,pIC50
1,C=CC(=O)N1CC[C@H](C(=O)N(C)[C@H](C(=O)N[C@H]2Cc3cc(O)cc(c3)-c3ccc4c(c3)c(c(-c3cnccc3[C@H](C)OC)n4CC)CC(C)(C)COC(=O)[C@@H]3CCCN(N3)C2=O)C(C)C)C1 [Compound A76],> 8.00
